Experimental findings from ChEMBL document CHEMBL1132640, “Structure-based design, synthesis, and X-ray crystallography of a high-affinity antagonist of the Grb2-SH2 domain containing an asparagine mimetic” (J Med Chem, 1999) are described below.

The target in this assay is Growth factor receptor-bound protein 2 (Homo sapiens, UniProt P62993). Nature of the assay: Inhibition of Grb2-SH2 domain binding to phospho-EGF receptor intracellular C-terminal domain. It counts as cell-based.

In general, IC50 refers to the concentration needed to halve the response being measured. A lower IC50 goes with inhibition by little substance.

Chain of Growth factor receptor-bound protein 2 (P62993 whole entry, the tested form may be a part): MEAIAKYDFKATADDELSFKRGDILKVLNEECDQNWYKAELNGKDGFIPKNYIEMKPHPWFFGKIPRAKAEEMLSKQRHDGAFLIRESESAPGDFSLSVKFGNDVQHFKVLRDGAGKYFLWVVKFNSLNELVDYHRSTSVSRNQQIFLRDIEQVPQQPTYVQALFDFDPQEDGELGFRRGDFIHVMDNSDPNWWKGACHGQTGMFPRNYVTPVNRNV

As to `NC(=O)[C@@H]1CCC=C[C@@H]1NC(=O)C1(NC(=O)[C@H](Cc2ccc(OP(=O)(O)O)cc2)NC(=O)OCc2cccc(N)c2)CCCCC1`, the half-inhibitory concentration (IC50) was greater than 5000 nM. `NC(=O)C[C@H](NC(=O)C1(NC(=O)[C@H](Cc2ccc(OP(=O)(O)O)cc2)NC(=O)OCc2cccc(N)c2)CCCCC1)C(N)=O` showed an IC50 of 1 nM. This lies in the single-digit nanomolar range.
